Test systems include A549; BT-549; CAKI-1; COLO 205; DU-145; EKVX; HCT-116; HCT-15; HL-60; HOP-92; IGROV-1; K562; M14; NCI-H23; NCI/ADR-RES; OVCAR-8; SK-MEL-28; SNB-19; SR; UO-31.
Experiment in all cases: NCI tumour cell line growth inhibition, 48 h

The structures appear in SMILES notation.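 The compound was tested at five concentrations on cells cultured in 96-well plates, with a 48-hour exposure period. GI50 marks 50% less growth.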 Calls of active or inactive are those of the source. No stated cut-off is given here; in the data, active = GI50 up to about 1.1 µM and inactive = higher.

Take `CCOC(=O)CCc1ccc(NC(=O)/C=C/c2ccc([N+](=O)[O-])o2)cc1`: the GI50 is 3.72 µM (inactive) in the experiment on A549; 2.66 µM (inactive) with BT-549; 2.47 µM (inactive) with CAKI-1; 1.52 µM (inactive) in the experiment with COLO 205; 2.1 µM (inactive) with DU-145; > 100 µM (inactive) in the experiment on EKVX. In addition, the GI50 is 0.685 µM (active) in the experiment with HCT-116; 1.77 µM in the experiment with HCT-15; 0.166 µM (active) in the experiment with HL-60; 4.04 µM (inactive) in the experiment with HOP-92; 3.5 µM (inactive) in the experiment on IGROV-1; 0.27 µM (active) in the experiment on K562. Further, the GI50 was 0.92 µM (active) in the experiment on M14; 0.863 µM (active) with NCI-H23; 1.78 µM (inactive) with NCI/ADR-RES; 0.681 µM (active) in the experiment on OVCAR-8; 0.773 µM (active) with SK-MEL-28; 9.82 µM (inactive) in the experiment on SNB-19. Besides, the GI50 was 0.155 µM (active) in the experiment with SR and 1.61 µM (inactive) in the experiment on UO-31.

Regarding `CC1=NN(C(=O)c2ccccc2O)C(c2ccccc2Cl)C1C(=O)Nc1ccccc1` (stereo not given), the GI50 in the experiment on A549 was < 0.0158 µM (active); in the experiment on BT-549 it was < 0.0256 µM (active); in the experiment with CAKI-1, 0.159 µM (active); in the experiment with COLO 205, 5.26 µM (inactive); with DU-145, < 0.0291 µM (active); in the experiment with EKVX it was 1.7 µM (inactive). Moreover, the GI50 was < 0.0196 µM (active) in the experiment with HCT-116; 0.0303 µM in the experiment with HCT-15; 0.161 µM (active) in the experiment on HL-60; > 100 µM (inactive) in the experiment on HOP-92; < 0.028 µM (active) in the experiment with IGROV-1; < 0.0235 µM (active) in the experiment with K562. For the same compound, the GI50 in the experiment with M14 was 0.054 µM (active); in the experiment on NCI-H23, < 0.0378 µM (active); in the experiment with NCI/ADR-RES, 0.0458 µM (active); with OVCAR-8, 0.0986 µM (active); with SK-MEL-28 it was 40.4 µM (inactive); in the experiment with SNB-19 it was 0.0306 µM (active). Also, the GI50 is < 0.0322 µM (active) in the experiment with SR and < 0.0226 µM (active) with UO-31.

Turning to `CC(=C(C(=O)O)C(=O)O)c1cc(-c2cccs2)cc(-c2ccc(Cl)cc2)c1O`, the GI50 was 20.7 µM (inactive) in the experiment with A549; 15.7 µM (inactive) in the experiment with BT-549; 17.4 µM (inactive) in the experiment on CAKI-1; 22.4 µM (inactive) in the experiment with COLO 205; 14.4 µM (inactive) with DU-145; 17.3 µM (inactive) in the experiment with EKVX. Moreover, the GI50 with HCT-116 was 13.8 µM (inactive); in the experiment with HCT-15, 14 µM; in the experiment with HL-60, 9.71 µM (inactive); in the experiment on HOP-92, 14.9 µM (inactive); in the experiment with IGROV-1, 15.2 µM (inactive); in the experiment with K562, 5.3 µM (inactive). The GI50 with M14 is 17.7 µM (inactive); with NCI-H23, 17.3 µM (inactive); in the experiment with NCI/ADR-RES, 20.3 µM (inactive); with OVCAR-8, 19.2 µM (inactive); with SK-MEL-28 it was 17.5 µM (inactive); with SNB-19, 15.7 µM (inactive). The results for the GI50 in the experiment on SR and with UO-31 were 3.67 µM (inactive) and 11.9 µM (inactive), respectively.

As for `c1ccc([P+](CC[P+](c2ccccc2)(c2ccccc2)c2ccccc2)(c2ccccc2)c2ccccc2)cc1`, the GI50 is 2.49 µM (inactive) in the experiment on A549; 42.3 µM (inactive) in the experiment with BT-549; 61.8 µM (inactive) with CAKI-1; 8.81 µM (inactive) in the experiment on COLO 205; 48.9 µM (inactive) in the experiment on DU-145; 4.76 µM (inactive) with EKVX. Also, the GI50 in the experiment on HCT-116 was 16.5 µM (inactive); in the experiment with HCT-15, 29 µM; in the experiment with HL-60, 0.396 µM (active); in the experiment with HOP-92, 32.6 µM (inactive); in the experiment with IGROV-1, 38 µM (inactive); in the experiment with K562, 2.44 µM (inactive). Further, the GI50 was 22.3 µM (inactive) with M14; 26.3 µM (inactive) in the experiment with NCI-H23; 61.4 µM (inactive) with NCI/ADR-RES; 4.82 µM (inactive) in the experiment on OVCAR-8; 13.7 µM (inactive) in the experiment with SK-MEL-28; 47.4 µM (inactive) in the experiment on SNB-19. Further, the GI50 in the experiment on SR is 14.7 µM (inactive); in the experiment on UO-31, > 46.1 µM (inactive).

On to `COC1CC(NC(=O)C(F)(F)F)C(OC(C)=O)C(C)O1` (stereo not given), for which the GI50 in the experiment with A549, with BT-549, with CAKI-1, with COLO 205, in the experiment with DU-145 and in the experiment on EKVX was > 100 µM (inactive) in each case. For the same compound, the GI50 is > 100 µM (inactive) in the experiment on HCT-116; more than 100 µM in the experiment with HCT-15; > 100 µM (inactive) with HL-60; 72.1 µM (inactive) with HOP-92; > 100 µM (inactive) in the experiment with IGROV-1; > 100 µM (inactive) in the experiment on K562. Also, the GI50 in the experiment on M14, in the experiment with NCI-H23, in the experiment with NCI/ADR-RES, with OVCAR-8, with SK-MEL-28 and in the experiment on SNB-19 was > 100 µM (inactive) in each case. Also, the GI50 in the experiment on SR and in the experiment on UO-31 was > 100 µM (inactive) each time.

Consider `COc1cc(Cc2cc3c(c(C(=O)O)c2Br)OCO3)cc(OC)c1OC`, for which the GI50 is > 100 µM (inactive) in the experiment with A549; 47.1 µM (inactive) in the experiment with BT-549; > 100 µM (inactive) with CAKI-1; > 100 µM (inactive) in the experiment with COLO 205; > 100 µM (inactive) with DU-145; > 100 µM (inactive) in the experiment with EKVX. Besides, the GI50 in the experiment with HCT-116 was 37 µM (inactive); with HCT-15, 41.6 µM; in the experiment on HL-60, 21.7 µM (inactive); in the experiment with HOP-92 it was 55.5 µM (inactive); with IGROV-1 it was > 100 µM (inactive); with K562 it was 40.9 µM (inactive). Besides, the GI50 is 70.8 µM (inactive) in the experiment with M14; > 100 µM (inactive) in the experiment with NCI-H23; 85.3 µM (inactive) in the experiment on NCI/ADR-RES; > 100 µM (inactive) in the experiment with OVCAR-8; > 100 µM (inactive) with SK-MEL-28; > 100 µM (inactive) in the experiment on SNB-19. Moreover, the GI50 in the experiment with SR is 52.6 µM (inactive); with UO-31 it was > 100 µM (inactive).

Turning to `Nc1n[nH]c(N)n1` [GUANAZOLE], the GI50 in the experiment on A549 is 4420 µM (inactive); in the experiment with BT-549 it was > 6490 µM (inactive); in the experiment on CAKI-1 it was 3550 µM (inactive); in the experiment on COLO 205 it was > 8990 µM (inactive); in the experiment on DU-145 it was 5130 µM (inactive); with EKVX, 7350 µM (inactive). In addition, the GI50 with HCT-116 is 5980 µM (inactive); with HCT-15, 7670 µM; with HL-60, 1420 µM (inactive); with HOP-92, 5190 µM (inactive); in the experiment with IGROV-1 it was 7000 µM (inactive); in the experiment on K562, 7110 µM (inactive). Moreover, the GI50 was 3310 µM (inactive) in the experiment with M14; 5300 µM (inactive) with NCI-H23; 2580 µM (inactive) in the experiment on NCI/ADR-RES; 3400 µM (inactive) with OVCAR-8; > 6150 µM (inactive) with SK-MEL-28; 9980 µM (inactive) in the experiment with SNB-19. Moreover, the values for the GI50 with SR and in the experiment with UO-31 were 3300 µM (inactive) and 7030 µM (inactive), respectively.

`COC(=O)CSc1cc(Cl)c(C)cc1S(=O)(=O)Nc1n[nH]c(N)n1`: the GI50 with A549, in the experiment with BT-549, with CAKI-1, in the experiment with COLO 205, in the experiment on DU-145 and in the experiment with EKVX was > 10 µM (inactive) each time. For the same compound, the GI50 with HCT-116 was > 10 µM (inactive); in the experiment on HCT-15, more than 10 µM; in the experiment on HL-60, > 10 µM (inactive); in the experiment on HOP-92, > 10 µM (inactive); with IGROV-1, > 10 µM (inactive); with K562, > 10 µM (inactive). Also, the GI50 in the experiment on M14, in the experiment with NCI-H23, with NCI/ADR-RES, in the experiment with OVCAR-8, in the experiment with SK-MEL-28 and with SNB-19 was > 10 µM (inactive) throughout. In addition, the GI50 with SR and with UO-31 was > 10 µM (inactive) in each case.

Values taken from ChEMBL document CHEMBL1201862, “PubChem BioAssay data set” (2004).
